Source: ChEMBL document CHEMBL2417480, “Bioactive polyprenylated acylphloroglucinol derivatives from Hypericum cohaerens” (J Nat Prod, 2013)

Assays:
[1] = system: SMMC-7721; test: Cytotoxicity against human SMMC7721 cells after 48 hrs by MTT assay; conditions: SMMC-7721, 48 h
[2] = system: MCF7; test: Cytotoxicity against human MCF7 cells after 48 hrs by MTT assay; conditions: MCF7, 48 h
[3] = system: SW480; test: Cytotoxicity against human SW480 cells after 48 hrs by MTT assay; conditions: SW480, 48 h
[4] = system: A549; test: Cytotoxicity against human A549 cells after 48 hrs by MTT assay; conditions: A549, 48 h
[5] = system: HL-60; test: Cytotoxicity against human HL60 cells after 48 hrs by MTT assay; conditions: HL-60, 48 h

Compound	IC50 [1] [µM]	IC50 [2] [µM]	IC50 [3] [µM]	IC50 [4] [µM]	IC50 [5] [µM]
CC(C)=CCC[C@]1(C)[C@@H](CC=C(C)C)C[C@]23C[C@H](C(C)(C)O)OC2=C(CC=C(C)C)C(=O)[C@@]1(C(=O)C(C)C)C3=O	> 20	> 20	> 20	> 20	> 20
CC(C)=CCC[C@]1(C)[C@@H](CC=C(C)C)C[C@]23C[C@@H](C(C)(C)O)OC2=C(C[C@H]2OC(C)(C)[C@H](CO)C2(C)C)C(=O)[C@@]1(C(=O)C(C)C)C3=O	9.5	9.3	7.4	5.6	8.8
CC(C)=CCC[C@]1(C)[C@@H](CC=C(C)C)C[C@]23C[C@@H](C(C)(C)O)OC2=C(C[C@@H]2OC(C)(C)[C@@H](CO)C2(C)C)C(=O)[C@@]1(C(=O)C(C)C)C3=O	> 20	10.2	15.6	11.3	5.8
CC(C)=CCC[C@]1(C)[C@@H](CC=C(C)C)C[C@]23C[C@@H](C(C)C)OC2=C(CC=C(C)C)C(=O)[C@@]1(C(=O)c1ccccc1)C3=O	> 20	> 20	> 20	> 20	> 20
CCC(C)C(=O)[C@@]12C(=O)C(CC=C(C)C)=C3O[C@@H](C(C)(C)O)C[C@]3(C[C@H](CC=C(C)C)[C@@]1(C)CCC=C(C)C)C2=O (stereo partly drawn)	> 20	> 20	> 20	> 20	> 20
CC(=O)O[C@H]1C(=O)[C@@]2(C)[C@H]([C@H](OC(=O)c3ccccc3)[C@]3(O)C[C@H](OC(=O)[C@H](O)[C@@H](NC(=O)c4ccccc4)c4ccccc4)C(C)=C1C3(C)C)[C@]1(OC(C)=O)CO[C@@H]1C[C@@H]2O [PACLITAXEL]	< 0.008	< 0.008			< 0.008
CC(C)=CCC[C@]1(C)[C@@H](CC=C(C)C)C[C@]23C[C@@H](C(C)(C)O)OC2=C(C[C@@H]2OC(C)(C)[C@@H](CO)C2(C)C)C(=O)[C@@]1(C(=O)c1ccccc1)C3=O	8.2	> 20	9.2	17.9	12.6
CCC(C)C(=O)[C@@]12C(=O)C3=C(OC(C)(C)C=C3)[C@@](CC=C(C)C)(C[C@H](CC=C(C)C)[C@@]1(C)CCC=C(C)C)C2=O (stereo partly drawn)	> 20	> 20	> 20	> 20	> 20
CC(C)=CCC[C@]1(C)[C@@H](CC=C(C)C)C[C@]23C[C@@H](C(C)C)OC2=C(CC=C(C)C)C(=O)[C@@]1(C(=O)C(C)C)C3=O	> 20	> 20	> 20	> 20	> 20
